According to ChEMBL document CHEMBL5120750, “Bis-bibenzyls, Bibenzyls, and Terpenoids in 33 Genera of the Marchantiophyta (Liverworts): Structures, Synthesis, and Bioactivity” (2022):
Converted amounts (≈) assume the structure as drawn.

Key:
[1] = tested on: Saccharomyces cerevisiae; test: Antibacterial activity against Saccharomyces cerevisiae; assay type: functional
[2] = tested on: Saccharomyces cerevisiae; test: Bactericidal activity against Saccharomyces cerevisiae; assay type: functional

MIC [1] [µg/mL] | Compound | MBC [2] [µg/mL]
0.98 (≈ 2.22 µM) | Oc1cc2cc(c1O)Oc1ccc(cc1)CCc1cccc(O)c1Oc1cccc(c1)CC2 [MARCHANTIN A] | 0.98 (≈ 2.22 µM)
0.98 (≈ 2.21 µM) | Oc1cccc(CCc2ccc(Oc3cc(CCc4cccc(O)c4)cc(O)c3O)cc2)c1 [PERROTETTIN F] | 0.98 (≈ 2.21 µM)
